Values quoted from earlier work as cited in US20170368135A1, “HERBAL DRUG COMPOSITION CONTAINING PROBIOTIC AND OPTIONALLY PREBIOTIC AND/OR ACTIVE PHARMACEUTICAL INGREDIENT” (VITALIVA, LLC, priority 2016, published 2017).

Experiments:
alcoholic liver disease = details: in vivo

## COc1cc(/C=C/C(=O)CC(=O)/C=C/c2ccc(O)c(OC)c2)ccc1O [Curcumin]
Alcoholic liver disease
  physiological changes induced by alcohol: dietary spice turmeric, shows that curcimin administration prevented
NF-κB in Kupffer cells
  endotoxin-mediated activation of NF-κB: phsyciological changes induced by alcohol. Curcumin blocks
NF-κB in Kupffer cells; Kupffer cells
  expression of cytokines, chemokines, COX-2, and iNOS: endotoxin-mediated activation of NF-κB and suppresses the expression
